From patent US10231939B2, “Hydroxytyrosol and oleuropein compositions for induction of DNA damage, cell death and LSD1 inhibition” (priority 2012, dated 2019) come the findings set out here.

What all share (experiment): Cell proliferation (Cell Titer-Blue Assay)
For orientation: Resazurin is reduced to fluorescent resorufin, in cell work by metabolically active cells.

In one assay the test system is HL-60 cells. In kind it is cell-based, human. Conditions: for EC50: Homo sapiens. As for the experimental part: Human acute myeloid leukemic HL-60 cells (ATCC No. CCL-240) obtained from the ATCC were maintained in Dulbecco's modified Eagle's medium (DMEM, Gibco®, Invitrogen, Carlsbad, USA) supplemented with 20% fetal bovine serum (FBS, In Vitro Technologies, Victoria, Australia), antibody/antimycotic containing 100 U/mL Penicillin, 100 μg/mL Streptomycin, 0.25 μg/mL Amphotericin B (Invitrogen, Carlsbad, Calif., USA) and 1× GlutaMAX (Gibco, Invitrogen). Cells were cultured in suspension in a humidified atmosphere of 5% (v/v) CO2 at 37° C. and were maintained in exponential growth phase. For maintenance, cells were passaged twice per week and seeded at ratios 1:10. Cell proliferation was determined using the Cell Titer-Blue Assay kit (Promega, Madison, Wis., USA). Cells were seeded at 10,000 cells per well in black flat bottom 96-well plates (Nalge Nunc, Penfield, N.Y., USA) and treated with serial doses of hydroxytyrosol (0-3200 μM) and oleuropein (0-12800 μM) for 24, 48 and 120 hours at 37° C., 5% (v/v) CO2. Following incubation with the test samples, Cell-Titer Blue reagent (20 μl per 100 μL) was added to each well and mixed gently for 5 sec prior to 4 hr incubation at 37° C. in a humidified atmosphere of 5% CO2. Fluorescence intensity (λex=550 nm and λem=615 nm) was determined using a Perkin Elmer Victor3 multilabel microplate counter (PerkinElmer, Waltham, Mass., USA). Data were expressed as % relative cell viability compared to untreated cells after correction of subtracting the media control fluorescence reading.

The subject of the next assay is SNU-16 cells. In kind it is cell-based. Particulars: Homo sapiens. From the text: (§1) Human chronic myelogenous leukemia K562 cells (ATCC No. CCL-243), human large B-lymphocyte non-Hodgkin's lymphoma LCL cells, human leukemic monocyte lymphoma U937 cells (ATCC No. CRL-1593.2), human prostate adenocarcinoma PC3 (ATCC No. CRL-1435) and human gastric carcinoma SNU-16 cells (ATCC No. CRL-5974) were maintained in complete-Royal Park Memorial Institute (RPMI) 1640 medium supplemented with 20 mmol/L HEPES (pH 7.4; GIBCO-Invitrogen, Carlsbad, Calif., USA), 10% (v/v) fetal bovine serum (FBS), 2 mmol/L L-glutamine (GIBCO-Invitrogen), and 80 units gentamicin (GIBCO-Invitrogen). Cells were cultured in suspension in a humidified atmosphere of 5% (v/v) CO2 at 37° C. and were maintained in exponential growth phase. For maintenance, cells were passaged twice per week and seeded at ratios 1:10. Cell proliferation was determined using the Cell Titer-Blue Assay kit (Promega, Madison, Wis., USA). Cells were seeded at 10,000 cells per well in black flat bottom 96-well plates (Nalge Nunc, Penfield, N.Y., USA) and treated with serial doses of hydroxytyrosol (0-3200 μM) and oleuropein (0-12800 μM) for 24, 48 and 120 hours at 37° C., 5% (v/v) CO2. Following incubation with the test samples, Cell-Titer Blue reagent (20 μl per 100 μL) was added to each well and mixed gently for 5 sec prior to 4 hr incubation at 37° C. in a humidified atmosphere of 5% CO2. Fluorescence intensity (λex=550 nm and λem=615 nm) was determined using a Perkin Elmer Victor3 multilabel microplate counter (PerkinElmer, Waltham, Mass., USA). Data were expressed as % relative cell viability compared to untreated cells after correction of subtracting the media control fluorescence reading.

The next assay deals with CEM-CCRF cells. The class given is cell-based, human. Conditions: for EC50: Homo sapiens. As for the experimental part:
as §1, with “Human acute T lymphoblast leukemic CEM-CCRF” for “Human chronic myelogenous leukemia K562”, “cells (ATTC NO. CCL-119), obtained from the ATCC” for “cells (ATCC No. CCL-243), human large B-lymphocyte non-Hodgkin's lymphoma LCL cells, human leukemic monocyte lymphoma U937 cells (ATCC No. CRL-1593.2), human prostate adenocarcinoma PC3 (ATCC No. CRL-1435) and human gastric carcinoma SNU-16 cells (ATCC No. CRL-5974)”, “in a Modified Eagle's Medium (α-MEM)” for “in complete-Royal Park Memorial Institute (RPMI) 1640 medium”, “with 2” for “with 20”, “(v/v) FBS,” for “(v/v) fetal bovine serum (FBS),”, “(GIBCO-Invitrogen). Similarly, CEM-CCRF—P-glycoprotein (PGP)—over expressing, vinblastine derivative—R100 cells, expressing multi-drug resistance (MDR) were grown in a-MEM supplemented with 2 mmol/L HEPES (pH 7.4), 10% (v/v) FBS, 2 mmol/L L-glutamine, 80 units gentamicin and 100 ng/ml vinblastine. R100 cells were cultured in a-MEM/FBS/gentamicin media without vinblastine for 7 days prior to use in experiments.” for “(GIBCO-Invitrogen).”

A further assay relates to R100 cells. In kind it is cell-based, human. Conditions: for EC50: Homo sapiens. How it is done: as §1, with “Human acute T lymphoblast leukemic CEM-CCRF” for “Human chronic myelogenous leukemia K562”, “cells (ATTC NO. CCL-119), obtained from the ATCC” for “cells (ATCC No. CCL-243), human large B-lymphocyte non-Hodgkin's lymphoma LCL cells, human leukemic monocyte lymphoma U937 cells (ATCC No. CRL-1593.2), human prostate adenocarcinoma PC3 (ATCC No. CRL-1435) and human gastric carcinoma SNU-16 cells (ATCC No. CRL-5974)”, “in a Modified Eagle's Medium (α-MEM)” for “in complete-Royal Park Memorial Institute (RPMI) 1640 medium”, “with 2” for “with 20”, “(v/v) FBS,” for “(v/v) fetal bovine serum (FBS),”, “(GIBCO-Invitrogen). Similarly, CEM-CCRF—P-glycoprotein (PGP)—over expressing, vinblastine derivative—R100 cells, expressing multi-drug resistance (MDR) were grown in a-MEM supplemented with 2 mmol/L HEPES (pH 7.4), 10% (v/v) FBS, 2 mmol/L L-glutamine, 80 units gentamicin and 100 ng/ml vinblastine. R100 cells were cultured in a-MEM/FBS/gentamicin media without vinblastine for 7 days prior to use in experiments.” for “(GIBCO-Invitrogen).”

`OCCc1ccc(O)c(O)c1` [HT, 4-(2-hydroxyethyl)-1,2-benzenediol]: the “EC10 (concentration required to reduce the cell viability of the population to 10%)” value turned out to be 29 µM in the assay on HL-60 cells (HL-60, 120 hr); 80 µM with CEM-CCRF cells (120 hr); 86 µM in the assay on R100 cells (R100, 120 hr). Moreover, the EC50 with HL-60 cells (HL-60, 24 hr) amounted to 632 µM; in the assay on HL-60 cells (HL-60, 48 hr) it was 100 µM; in the assay on HL-60 cells (HL-60, 120 hr) it was 13 µM; in the assay on SNU-16 cells (SNU-16, 24 hr), 1100 µM; in the assay with SNU-16 cells (SNU-16, 48 hr), 80 µM; in the assay on CEM-CCRF cells (24 hr), 121 µM. The EC50 with CEM-CCRF cells (48 hr) was 100 µM; with CEM-CCRF cells (120 hr), 42 µM; with R100 cells (R100, 24 hr), 190 µM; in the assay on R100 cells (R100, 48 hr) it was 100 µM; with R100 cells (R100, 120 hr) it was 40 µM.
In the case of `C/C=C1/[C@H](O[C@@H]2O[C@H](CO)[C@@H](O)[C@H](O)[C@H]2O)OC=C(C(=O)OC)[C@H]1CC(=O)OCCc1ccc(O)c(O)c1` [OL, oleuropein], the “EC10 (concentration required to reduce the cell viability of the population to 10%)” value in the assay on HL-60 cells (HL-60, 120 hr) amounted to 230 µM; in the assay with CEM-CCRF cells (120 hr) it was 700 µM; in the assay with R100 cells (R100, 120 hr), 530 µM. The EC50 in the assay with HL-60 cells (HL-60, 24 hr) amounted to 717 µM; with HL-60 cells (HL-60, 48 hr) it was 900 µM; in the assay on HL-60 cells (HL-60, 120 hr), 100 µM; with SNU-16 cells (SNU-16, 24 hr), 2820 µM; in the assay with SNU-16 cells (SNU-16, 48 hr) it was 800 µM; in the assay on CEM-CCRF cells (24 hr), 437 µM. The EC50 in the assay with CEM-CCRF cells (48 hr) is 1800 µM; in the assay with CEM-CCRF cells (120 hr), 325 µM; with R100 cells (R100, 24 hr), 320 µM; with R100 cells (R100, 48 hr) it was 1000 µM; in the assay with R100 cells (R100, 120 hr), 250 µM.

By EC50 is commonly meant the midpoint of the concentration-response curve. Low values mean greater potency, high ones weaker potency.
